Results on five compounds are retold here after patent publication US6413935B1, “Induction of immune response against desired determinants” (priority 1993, dated 2002).

For one test, the target named is T1, IE^d (Mus musculus, UniProt P01904+P01915).
T1 construct: Various cell lines were used as sources of purified human and mouse class II molecules; endogenous in cells; host or cells: A20
T1 sequence (P01904 26-255): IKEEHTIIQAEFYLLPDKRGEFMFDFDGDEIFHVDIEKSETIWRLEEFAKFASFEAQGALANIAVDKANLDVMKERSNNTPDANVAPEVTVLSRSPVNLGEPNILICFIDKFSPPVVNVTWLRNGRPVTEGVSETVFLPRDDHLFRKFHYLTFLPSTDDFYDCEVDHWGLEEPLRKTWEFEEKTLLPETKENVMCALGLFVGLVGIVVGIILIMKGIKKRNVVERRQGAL
T1 sequence (P01915 27-264 limits assumed): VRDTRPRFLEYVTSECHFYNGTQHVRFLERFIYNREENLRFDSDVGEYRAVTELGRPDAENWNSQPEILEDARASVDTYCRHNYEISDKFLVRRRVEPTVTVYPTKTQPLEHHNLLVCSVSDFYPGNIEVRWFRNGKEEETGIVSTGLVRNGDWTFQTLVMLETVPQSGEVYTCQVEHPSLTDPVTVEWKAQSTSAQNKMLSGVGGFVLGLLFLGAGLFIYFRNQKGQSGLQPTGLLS
Put plainly: biochemical. Format: binding. The conditions noted are these: Table III; read-out: Capacity to bind purified IE^d, IC50.

For the next test, the target named is T2, IA^s (Mus musculus, UniProt P06345+P14437).
T2 construct: Various cell lines were used as sources of purified human and mouse class II molecules; endogenous in cells; host or cells: LS102.9
T2 sequence (P14437 1-233): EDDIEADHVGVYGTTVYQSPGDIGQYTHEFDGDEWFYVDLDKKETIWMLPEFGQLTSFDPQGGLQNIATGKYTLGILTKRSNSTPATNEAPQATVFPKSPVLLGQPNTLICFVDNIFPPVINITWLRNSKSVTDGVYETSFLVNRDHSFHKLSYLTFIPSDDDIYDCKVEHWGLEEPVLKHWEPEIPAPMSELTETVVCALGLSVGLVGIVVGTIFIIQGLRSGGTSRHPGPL
T2 sequence (P06345 28-263): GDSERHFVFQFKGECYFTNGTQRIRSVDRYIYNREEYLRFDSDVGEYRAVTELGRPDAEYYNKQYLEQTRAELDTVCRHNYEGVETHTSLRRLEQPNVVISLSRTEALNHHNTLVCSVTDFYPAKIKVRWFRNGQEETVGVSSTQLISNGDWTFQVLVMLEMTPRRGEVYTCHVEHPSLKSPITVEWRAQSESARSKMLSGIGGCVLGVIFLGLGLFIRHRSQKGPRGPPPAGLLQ
Briefly: biochemical. Format: binding. The conditions noted are these: Table III; read-out: Capacity to bind purified IA^s, IC50.

The target in a further test is T3, IA^k (Mus musculus, UniProt P01910+P06343).
T3 construct: Various cell lines were used as sources of purified human and mouse class II molecules; endogenous in cells; host or cells: CH12
T3 sequence (P01910 24-256): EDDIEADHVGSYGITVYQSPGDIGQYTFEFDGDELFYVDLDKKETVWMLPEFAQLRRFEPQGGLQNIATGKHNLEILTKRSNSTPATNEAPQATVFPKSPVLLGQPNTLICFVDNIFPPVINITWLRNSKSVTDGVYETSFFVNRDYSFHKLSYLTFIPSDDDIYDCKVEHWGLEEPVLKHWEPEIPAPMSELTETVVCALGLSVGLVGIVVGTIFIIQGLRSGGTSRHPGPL
T3 sequence (P06343 28-263): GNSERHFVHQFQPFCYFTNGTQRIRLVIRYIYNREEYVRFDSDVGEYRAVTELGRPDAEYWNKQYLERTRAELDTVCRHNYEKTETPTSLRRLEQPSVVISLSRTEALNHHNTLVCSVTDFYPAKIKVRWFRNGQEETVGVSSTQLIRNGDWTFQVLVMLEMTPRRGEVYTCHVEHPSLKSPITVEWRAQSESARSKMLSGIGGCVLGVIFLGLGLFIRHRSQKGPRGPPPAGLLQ
Briefly: biochemical. Format: binding. The conditions noted are these: Table III; read-out: Capacity to bind purified IA^k, IC50.

A further test deals with DR5. The settings on record: read-out: PADRE Class II Binding Affinities DR5, Table IX.
A further test relates to DR7. The conditions noted are these: read-out: PADRE Class II Binding Affinities DR7, Table IX.
The target of another test is DR1 (Homo sapiens, UniProt P01903+P01911, A100R/D57E/F55L/F60I/F76Y/I96L/L162R/M171V/P40L/Q125E/R42F/V115G/Y59C). Briefly: biochemical.
In another test the target is DR4w4 (Homo sapiens, UniProt P01903+P01911, A100K/A169T/F76Y/I96L/K127E/L162R/M171V/N62H/P40V/Q125Y/R42H/S133A/S149N/S66Y/V115G/V209L/W38E). Briefly: biochemical.
In another test the target is DR2w2a (Homo sapiens, UniProt P01903+Q30154). Briefly: biochemical. The settings on record: PADRE Class II Binding Affinities DR2w282, Table IX.
DR2w2a, sequence (P01903 26-254): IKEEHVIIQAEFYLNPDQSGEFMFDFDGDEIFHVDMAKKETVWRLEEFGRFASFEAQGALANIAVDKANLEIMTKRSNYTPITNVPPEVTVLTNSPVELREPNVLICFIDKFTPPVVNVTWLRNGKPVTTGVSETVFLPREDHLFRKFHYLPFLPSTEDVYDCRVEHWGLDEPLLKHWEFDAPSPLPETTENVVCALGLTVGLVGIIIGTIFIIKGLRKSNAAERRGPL
DR2w2a, sequence (Q30154 30-266): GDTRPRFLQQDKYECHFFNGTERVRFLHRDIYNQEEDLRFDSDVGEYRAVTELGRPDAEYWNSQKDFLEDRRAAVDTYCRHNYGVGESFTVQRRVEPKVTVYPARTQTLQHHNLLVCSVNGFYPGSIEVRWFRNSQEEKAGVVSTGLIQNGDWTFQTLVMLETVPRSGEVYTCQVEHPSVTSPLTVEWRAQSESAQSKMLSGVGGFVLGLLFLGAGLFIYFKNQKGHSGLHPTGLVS
In the next test the target is DR3 (Homo sapiens, UniProt P01903+P01911, A100K/A102G/A103R/A169T/F55Y/I96L/K41T/L162R/M171V/P40S/Q125H/Q178H/Q39Y/R42S/S66N/T106N/T262R/W38E/Y61H). Put plainly: biochemical. The conditions noted are these: PADRE Class II Binding Affinities DR3, Table IX.
For a further test, the system named is human PBMC T cell lines. Type of test: cell-based.
The mark [1] stands for this setting: PADRE Class II Binding Affinities DR1, Table IX.
Setting [2] is: PADRE Class II Binding Affinities DR4w4, Table IX.

Several values for one entry are separate records, joined by “and”; a condition that tells them apart may be missing. Identical values can stand only once. Like-named read-outs stand apart in the source and are kept apart here. A value given as a limit tells only on which side of the number the result lay.

For the compound `CC[C@H](C)[C@H](N)C(=O)N[C@@H](CO)C(=O)N[C@@H](CCC(N)=O)C(=O)N[C@@H](C)C(=O)N[C@H](C(=O)N[C@@H](Cc1c[nH]cn1)C(=O)N[C@@H](C)C(=O)N[C@@H](C)C(=O)N[C@@H](Cc1c[nH]cn1)C(=O)N[C@@H](C)C(=O)N[C@@H](CCC(=O)O)C(=O)N[C@H](C(=O)N[C@@H](CC(N)=O)C(=O)N[C@@H](CCC(=O)O)C(=O)O)[C@@H](C)CC)C(C)C` [Ova 323-336, ISQAVHAAHAEINE], the IC50 on IE^d was more than 10000 nM; at IA^s, 1040 nM; on IA^k, 1000 nM.
For `CC(C)C[C@H](NC(=O)[C@@H](NC(=O)[C@H](CC(N)=O)NC(=O)[C@H](C)NC(=O)[C@H](CCCNC(=N)N)NC(=O)[C@@H](NC(=O)[C@H](CC1CCCCC1)NC(=O)[C@H](CCCNC(=N)N)NC(=O)[C@@H](C)N)C(C)C)[C@@H](C)O)C(=O)N[C@@H](CCCCN)C(=O)N[C@@H](C)C(=O)N[C@@H](C)C(=O)N[C@H](C)C(N)=O` [Peptide 965.06], the IC50 with DR5 was found to be 5.6 nM; in the test with DR7, 73.5 nM; at DR1 (setting [1]), 0.8 nM; at DR4w4 (setting [2]), 1.3 nM; at DR2w2a, 6.4 nM.
On to `CC(C)C[C@H](NC(=O)[C@@H](NC(=O)[C@H](CC(N)=O)NC(=O)[C@H](C)NC(=O)[C@H](CCCCN)NC(=O)[C@@H](NC(=O)[C@H](CC1CCCCC1)NC(=O)[C@H](CCCCN)NC(=O)[C@@H](C)N)C(C)C)[C@@H](C)O)C(=O)N[C@@H](CCCCN)C(=O)N[C@@H](C)C(=O)N[C@@H](C)C(=O)N[C@H](C)C(N)=O` [Peptide 965.011], for which the IC50 in the test on DR5 was 11.8 nM; in the test on DR5 (listed as 965.012) it was 2.2 nM; with DR7 (listed as 965.012), 781 nM; at DR1 (setting [1]) it was 1.5 nM and 1.3 nM; at DR3, 592 nM and 4590 nM; on DR2w2a, 12.5 nM and 10.5 nM.
Regarding `CC(C)C[C@H](NC(=O)[C@@H](NC(=O)[C@H](Cc1c[nH]c2ccccc12)NC(=O)[C@H](C)NC(=O)[C@H](Cc1ccc(O)cc1)NC(=O)[C@@H](NC(=O)[C@H](CC1CCCCC1)NC(=O)[C@H](CCCCN)NC(=O)[C@@H](C)N)C(C)C)[C@@H](C)O)C(=O)N[C@@H](CCCCN)C(=O)N[C@@H](C)C(=O)N[C@@H](C)C(=O)N[C@H](C)C(N)=O` [Peptide 965.051], the IC50 with DR5 is 5.7 nM; with DR5 (listed as 965.052), 6.9 nM; in the test with DR7 (listed as 965.052), 25.5 nM; on DR1 (setting [1]), 0.5 nM and 0.7 nM; at DR4w4 (setting [2]), 0.3 nM and 0.8 nM; at DR2w2a it was 7.1 nM and 9 nM.
For the compound `CC(C)C[C@H](NC(=O)[C@@H](NC(=O)[C@H](Cc1ccc(O)cc1)NC(=O)[C@H](C)NC(=O)[C@H](C)NC(=O)[C@@H](NC(=O)[C@H](CC1CCCCC1)NC(=O)[C@H](CCCCN)NC(=O)[C@@H](C)N)C(C)C)[C@@H](C)O)C(=O)N[C@@H](CCCCN)C(=O)N[C@@H](C)C(=O)N[C@@H](C)C(=O)N[C@H](C)C(N)=O` [Peptide 965.091], the “Donors with significant (>10,000 cpm) T cell response / donors tested, second stimulation” value in the test on human PBMC T cell lines was 4/5. For the same compound, the “Donors with significant (>10,000 cpm) T cell response / donors tested, third stimulation” value with human PBMC T cell lines is listed as 4/5. For the same compound, the IC50 in the test on DR5 (listed as 965.092) is 6.5 nM; at DR1 (PADRE Class II Binding Affinities DR1), 0.8 nM; on DR1 (setting [1]), 0.6 nM; on DR3, 450 nM and 3210 nM; at DR4w4 (PADRE Class II Binding Affinities DR4w4), 1 nM; at DR2w2a, 7.4 nM and 6.4 nM.
